Assay: Curcumin retention in curcumin-cyclodextrin inclusion complex solution left standing 10 days
Format: physicochemical
Settings: 10 days at room temperature without shielding from light

| SMILES | curcumin remained in the solution |
| --- | --- |
| OC[C@H]1O[C@@H]2O[C@H]3[C@H](O)[C@@H](O)[C@@H](O[C@H]4[C@H](O)[C@@H](O)[C@@H](O[C@H]5[C@H](O)[C@@H](O)[C@@H](O[C@H]6[C@H](O)[C@@H](O)[C@@H](O[C@H]7[C@H](O)[C@@H](O)[C@@H](O[C@H]1[C@H](O)[C@H]2O)O[C@@H]7CO)O[C@@H]6CO)O[C@@H]5CO)O[C@@H]4CO)O[C@@H]3CO [α-cyclodextrin] | 36.83% |
| OC[C@H]1O[C@@H]2O[C@H]3[C@H](O)[C@@H](O)[C@@H](O[C@H]4[C@H](O)[C@@H](O)[C@@H](O[C@H]5[C@H](O)[C@@H](O)[C@@H](O[C@H]6[C@H](O)[C@@H](O)[C@@H](O[C@H]7[C@H](O)[C@@H](O)[C@@H](O[C@H]8[C@H](O)[C@@H](O)[C@@H](O[C@H]1[C@H](O)[C@H]2O)O[C@@H]8CO)O[C@@H]7CO)O[C@@H]6CO)O[C@@H]5CO)O[C@@H]4CO)O[C@@H]3CO [β-cyclodextrin] | 32.30% |
| OC[C@H]1O[C@@H]2O[C@H]3[C@H](O)[C@@H](O)[C@@H](O[C@H]4[C@H](O)[C@@H](O)[C@@H](O[C@H]5[C@H](O)[C@@H](O)[C@@H](O[C@H]6[C@H](O)[C@@H](O)[C@@H](O[C@H]7[C@H](O)[C@@H](O)[C@@H](O[C@H]8[C@H](O)[C@@H](O)[C@@H](O[C@H]9[C@H](O)[C@@H](O)[C@@H](O[C@H]1[C@H](O)[C@H]2O)O[C@@H]9CO)O[C@@H]8CO)O[C@@H]7CO)O[C@@H]6CO)O[C@@H]5CO)O[C@@H]4CO)O[C@@H]3CO [γ-cyclodextrin] | 21.94% |

— patent publication US11840584B2, “Simple and green method for preparation of acid modified cyclodextrin” (priority 2020, dated 2023)
